These results are taken from patent publication US6534519B1, “Phenanthridine-N-oxides with PDE-IV inhibiting activity” (Altana Pharma AG, priority 1999, dated 2003).

One data set concerns PDE4. The data set can be described thus: Inhibition of PDE4 activity (method of Bauer and Schwabe, microtiter plates). Type of data set: biochemical. As to conditions: inhibitory concentration as −log IC50 (mol/1). From the text: The activity test can be carried out, for example according to the method of Bauer and Schwabe. For this, the method is adapted to microtiter plates (Naunyn-Schmiedeberg's Arch. Pharmacol. 1980, 311, 193-198). The PDE reaction takes place in the first step here. In a second step, the resulting 5′-nucleotide is cleaved by a 5′-nucloetidase of the snake venom of Crotalus atrox to the uncharged nucleoside. In the third step, the nucleoside is separated from the remaining charged substrate on ion-exchange columns. The columns are eluted directly into minivials, into which 2 ml of scintillator fluid are additionally added for counting, using 2 ml of 30 mM ammonium formate (pH 6.0).
The inhibitory values determined for the compounds according to the invention [inhibitory concentration as −log IC50 (mol/1)] follow from the following Table A, in which the numbers of the compounds correspond to the numbers of the examples.

Structures are written as SMILES.

One may read the melting point as the temperature, or range, at which the solid turns liquid. For the compound `CCn1nnc(-c2ccc(C3=[N+]([O-])C4CCCCC4c4cc(OC)c(OC)cc43)cc2)n1` (single isomer, unassigned; (-)) [Compound 1, (−)-cis-6-[4-(2-Ethyl-2H-tetrazol-5-yl)phenyl]-8,9-dimethoxy-1,2,3,4,4a,10b-hexahydrophen-anthridine-N-5-oxide], the melting point was in the range of 143.5 to 146 °C. Besides, the “−log IC50” value in the data set on PDE4 was found to be 6.29.
